According to EP0444546B1, “Hydantoin derivatives for use as hypoglycemic and/or hypolipidemic agents” (MOCHIDA PHARMACEUTICAL CO., LTD., priority 1990, dated 1991):
Entries after “also recorded” stand apart in the source; their conditions may differ.

Key:
[1] = test system: normal rats; experiment: Hypoglycemic effects in normal rats; type: in vivo, male Wistar rats
Description: Groups of 5 male Wistar rats, after being fasted for 4 hrs, were orally administered with compound 20 or 23 of the present invention or gliclazide. Blood samples were collected from the orbital vein before, 1 hr and 6 hrs after the administration. Serum glucose levels were determined by the enzymatic method with an autoanalyser (Cobas Fara ® , Roche).

[2] = test system: streptozotocin-diabetic rats; experiment: Ketone body lowering effects in streptozotocin-diabetic rats; type: in vivo; conditions: STZ-diabetic rats; for Lowering rate of serum total ketone body (%): 100 mg/kg orally for 2 weeks, blood 6 hrs after the last administration
Description: (§1) Diabetic rats were produced according to the method of Junod et al. (A. Junod et al., J. Clin. Invest., 48, 2129 (1969)). Briefly, male Wistar rats were given 26.5 mg/kg of streptozotocin (STZ) intravenously. Four days later, the rats with serum glucose levels of between 400 and 500 mg/dl were used. After being fasted for 4 hrs, groups of 5 diabetic rats were orally administered with the compounds of the present invention or gliclazide in a dose of 100 mg/kg. Blood samples were collected from the orbital vein before and 6 hrs after the administration. Serum glucose levels were determined by the enzymatic methods with an autoanalyzer (Cobas Fara ® , Roche).
(§2) Diabetic rats were produced according to the method described previously. Groups of 5 diabetic rats were orally administered with compound 20 or 23 of the present invention for 2 weeks. The rats were deprived of food 4 hrs before the last administration, and 6 hrs after the last administration, blood samples were collected from the orbital vein. Serum total ketone body (KB) levels were determined by the enzymatic method with an autoanalyzer (Cobas Fara ® , Roche). In this experiment, serum total ketone body levels in streptozotocin - diabetic rats increased by 92 % of normal rats in the mean value.

[3] = test system: ICR strain mice; experiment: Acute toxicity in mice; type: in vivo; conditions: oral dose of 1 g/kg, one-week period after the administration
Text: Hydantoin derivatives of the present invention were examined for acute toxicity.

[4] = test system: streptozotocin - diabetic rats; experiment: Hypolipidemic effects in streptozotocin-diabetic rats; type: in vivo; conditions: STZ-diabetic rats; for Lowering rate of serum lipids (%) CHOL / Lowering rate of serum lipids (%) NEFA / Lowering rate of serum lipids (%) TG: 100 mg/kg orally for 2 weeks; for Lowering rate of serum lipids (%) CHOL: serum cholesterol 6 hrs after the last administration; for Lowering rate of serum lipids (%) NEFA: serum non-esterified fatty acid 6 hrs after the last administration; for Lowering rate of serum lipids (%) TG: serum triglyceride 6 hrs after the last administration
Description: as §1
as §2, with “invention at a dose of 100 mg/kg” for “invention”, “triglyceride (TG), non - esterified fatty acid (NEFA) and cholesterol (CHOL)” for “total ketone body (KB)”, “experiment, each parameters of” for “experiment,”, “lipids” for “total ketone body levels”, “40” for “92”

[5] = test system: streptozotocin-diabetic rats; experiment: Hypoglycemic effects in streptozotocin-diabetic rats; type: in vivo, male Wistar rats
Description: Four days later, the rats with serum glucose levels of between 400 and 500 mg/dl were used. After being fasted for 4 hrs, groups of 5 diabetic rats were orally administered with the compounds of the present invention or gliclazide in a dose of 100 mg/kg. Blood samples were collected from the orbital vein before and 6 hrs after the administration. Serum glucose levels were determined by the enzymatic methods with an autoanalyzer (Cobas Fara ® , Roche).

[6] = 100 mg/kg p.o., 1 hour after administration
[7] = 100 mg/kg p.o., 6 hours after administration

## O=C1CN(S(=O)(=O)c2oc3ccccc3c2Cl)C(=O)N1 [Compound 23, 1-(3-chlorobenzo[b]furan-2-ylsulfonyl)hydantoin]
[1]
  influence on serum glucose level of normal rats (in words): lesser influences
[1]; [6]
  Lowering rate of serum glucose (%): 9%
[1]; [7]
  Lowering rate of serum glucose (%): 0%
[2]
  lowering of serum total ketone body levels (in words): lowering activity
  Lowering rate of serum total ketone body (%): 43%
[3]
  acute toxicity: no change was observed
[4]
  lowering of serum triglyceride, non - esterified fatty acid and cholesterol levels (in words): lowering activities
  Lowering rate of serum lipids (%) CHOL: 30%
  Lowering rate of serum lipids (%) NEFA: 18%
  Lowering rate of serum lipids (%) TG: 43%

## O=C1CN(S(=O)(=O)c2cc(Cl)sc2Cl)C(=O)N1 [Compound 16, 1-(2,5-dichlorothien-3-ylsulfonyl)hydantoin]
[3]
  acute toxicity: no change was observed

## 1-(benzo[b]isothiazol-3-ylsulfonyl)hydantoin [Compound 15]
[5]; STZ-diabetic rats fasted 4 hrs, 100 mg/kg orally, 6 hrs after administration vs before
  Lowering rate of serum glucose (%): 23.6%

## O=C1CN(S(=O)(=O)c2oc3ccccc3c2Br)C(=O)N1 [Compound 20, 1-(3-bromobenzo[b]furan-2-ylsulfonyl)hydantoin]
[1]
  influence on serum glucose level of normal rats (in words): lesser influences
[1]; [6]
  Lowering rate of serum glucose (%): 13%
[1]; [7]
  Lowering rate of serum glucose (%): 6%
[2]
  lowering of serum total ketone body levels (in words): lowering activity
  Lowering rate of serum total ketone body (%): 50%
[3]
  acute toxicity: no change was observed
[4]
  lowering of serum triglyceride, non - esterified fatty acid and cholesterol levels (in words): lowering activities
  Lowering rate of serum lipids (%) CHOL: 31%
  Lowering rate of serum lipids (%) NEFA: 35%
  Lowering rate of serum lipids (%) TG: 36%

## O=C1CN(S(=O)(=O)c2cc3ccccc3s2)C(=O)N1 [Compound 8, 1-(benzo[b]thien-2-ylsulfonyl)hydantoin]
[3]
  acute toxicity: no change was observed

## O=C1CN(S(=O)(=O)c2cc3ccccc3o2)C(=O)N1 [Compound 9, 1-(benzo[b]furan-2-ylsulfonyl)hydantoin]
[3]
  acute toxicity: no change was observed

## Cc1ccc(S(=O)(=O)NC(=O)NN2CC3CCCC3C2)cc1 (centres unmarked) [Compound A, gliclazide, reference compound]
[5]; STZ-diabetic rats / experimental animal model of diabetes mellitus
  hypoglycemic activity (in words): less potent hypoglycemic activity than all compounds of the present invention
[1]
  influence on serum glucose level of normal rats (in words): significantly lowered; also recorded: remarkable hypoglycemic activity
[1]; 10 mg/kg p.o., 1 hour after administration
  Lowering rate of serum glucose (%): 57%
[1]; 10 mg/kg p.o., 6 hours after administration
  Lowering rate of serum glucose (%): 1%

## O=C1CN(S(=O)(=O)c2cc3ccc(Cl)cc3cc2Cl)C(=O)N1 [Compound 2, 1-(3,6-dichloronaphthalen-2-ylsulfonyl)hydantoin]
[3]
  acute toxicity: no change was observed
